Experimental findings from ChEMBL document CHEMBL4842342, “Amidoxime prodrugs convert to potent cell-active multimodal inhibitors of the dengue virus protease” (Eur J Med Chem, 2021) are described below.

Active and inactive are the calls of the source. No cut-off for these calls is given here.

For data set [1], the system named is dengue virus type 2. Kind of data set: Antiviral activity against Dengue virus 2 infected in human A549 cells assessed as reduction in viral titer production measured after 48 hrs by plaque reduction assay. In kind it is functional, organism-based. To be noted: A549, 48 h.
Data set [2] is described as follows: Cytotoxicity against monkey LLC-MK2 cells assessed as reduction in cell viability by MTT assay. The format is cell-based, Macaca mulatta. To be noted: rhesus monkey. A general note: Tetrazolium dyes change colour on reduction, which living cells bring about.
For data set [3], the target named is T1, Genome polyprotein (dengue virus type 2, UniProt P29990). Nature of the data set: Inhibition of DENV2 NS2B-NS3 protease assessed as inhibition of protease intermolecular processing.
Data set [4] relates to dengue virus type 2. Kind of data set: Antiviral activity against DENV2 infected in human Huh-7 cells assessed as log reduction in extracellular viral RNA synthesis at 10 uM treated at 6 hrs post-viral infection and measured after 48 hrs by real time RT-PCR method. In kind it is functional. A general note: Quantitative PCR measures a nucleic acid by following its amplification.

Data set [5] can be described thus: Cytotoxicity against human PBMC assessed as reduction in cell viability.
Data set [6] relates to dengue virus type 2. Kind of data set: Antiviral activity against Dengue virus 2 EDEN2 infected in human Huh-7 cells. The format is functional, organism-based. To be noted: EDEN2, Huh-7.
Data set [7] addresses Genome polyprotein (dengue virus type 2) (UniProt P29990). Kind of data set: Inhibition of NS2B-NS3 protease in DENV2 infected in human Huh-7 cells assessed as inhibition of NS3 internal cleavage site at 10 uM treated 6 hrs […] viral infection and measured at 30 hrs post-infection by western blot analysis. The format is cell-based. To be noted: time 24.0 hrs. (Immunoblotting shows a protein as a band on a membrane.)

The subject of data set [8] is dengue virus type 2. Nature of the data set: Antiviral activity against Dengue virus 2 measured at 48 hrs post-infection. The format is functional, organism-based. The conditions noted are these: Dengue virus, 48 h; read-out: EC50.
The test system of another data set is dengue virus type 3. Nature of the data set: Antiviral activity against DENV3. The format is functional, organism-based.
For another data set, the system named is dengue virus type 4. Kind of data set: Antiviral activity against DENV4. The format is functional, organism-based.
In data set [9] the test system is dengue virus type 2. Nature of the data set: Antiviral activity against DENV2 infected in human Huh-7 cells assessed as viral infection rate at 10 uM treated at 6 hrs post-viral infection and measured at 30 hrs post-infection by confocal microscopy (reference value: 50 to 60%). The format is functional. The conditions noted are these: time 24 hrs.
The target of data set [10] is T1, Genome polyprotein. Nature of the data set: Inhibition of NS2B-NS3 protease in DENV2 EDEN2 infected in human Huh-7 cells. The format is cell-based.
In data set [11] the test system is dengue virus type 2. Nature of the data set: Antiviral activity against DENV2 infected in human Huh-7 cells assessed as log reduction in intracellular viral RNA synthesis at 10 uM treated at 6 hrs post-viral infection and measured after 12 hrs by real time RT-PCR method. The format is functional.
Data set [12] relates to dengue virus type 2. Kind of data set: Antiviral activity against DENV2 infected in human Huh-7 cells assessed as reduction in intracellular viral RNA synthesis at 10 uM treated at 6 hrs post-viral infection and measured after 48 hrs by real time RT-PCR method. In kind it is functional, organism-based.
The subject of data set [13] is dengue virus type 2. Kind of data set: Antiviral activity against DENV2 infected in human Huh-7 cells assessed as log reduction in intracellular viral RNA synthesis at 10 uM treated at 6 hrs post-viral infection and measured after 38 hrs by real time RT-PCR method. In kind it is functional.
Data set [14] has as its system dengue virus type 2. Nature of the data set: Antiviral activity against DENV2. The format is functional, organism-based.
Data set [15] concerns dengue virus type 2. Nature of the data set: Antiviral activity against DENV2 D2Y10 virus infected in human PBMC cells in presence of 4G2 antibody. In kind it is functional, organism-based.
The next data set concerns dengue virus type 1. Kind of data set: Antiviral activity against DENV1. The format is functional, organism-based.
Data set [16] in a line: Cytotoxicity against human Huh-7 cells assessed as reduction in cell viability. In kind it is cell-based.

Turning to `O=C1C=C/C(=N/Nc2ccc([N+](=O)[O-])cc2Cl)C=C1C(=O)Nc1cccc(Cl)c1`, the EC50 (commonly the midpoint of the concentration-response curve) in the data set on dengue virus type 2 [1] was found to be 0.81 µM.

For the compound `O=C1c2c(O)ccc([N+](=O)[O-])c2C(=O)c2c([N+](=O)[O-])ccc(O)c21`, the half-maximal cytotoxic concentration (CC50) (commonly the concentration at which the toxic effect on the cells reaches its halfway point) in [2] amounted to 69.4 µM. Further, at Genome polyprotein [3], the IC50 (as a rule, the point on the concentration scale where inhibition reaches its midpoint) is 432 µM.

For `N/C(=N\O)c1cccc(-c2ccc3c(c2)c2cc(-c4cccc(/C(N)=N/O)c4)ccc2n3Cc2cccc(Br)c2)c1`, the “log(activity)” value worked out at 3 in the data set on dengue virus type 2 [4], 2 in the data set with dengue virus type 2 [11] and 2 with dengue virus type 2 [13]. Moreover, the CC50 in data set [5] and in data set [16] was > 100 µM throughout. For the same compound, the EC50 came to 1.1 µM with dengue virus type 2 [6]; 1.1 µM with dengue virus type 2 [8]; 5.1 µM in the data set on dengue virus type 3; 1.7 µM with dengue virus type 4; 1.4 µM in the data set on dengue virus type 2 [14]; 1.66 µM in the data set with dengue virus type 2 [15]. In the data set on dengue virus type 1, this compound returned an EC50 of 5.9 µM. Further, the inhibition entry in [7] is “Active”. For the same compound, the Activity with dengue virus type 2 [9] worked out at 10%. The compound also returned an IC50 against Genome polyprotein [10] of 18 µM. Also, the result in the data set on dengue virus type 2 [12] was inactive.
